The test system of series [1] is gouty arthritis-type pain. The experiment in a line: PIFIR pain-induced functional impairment model in the rat. The format is in vivo, male Wistar rats. To be noted: for MAXIMUM EFFICACY (ABC: X ± E.E.): dose of each analgesic (mg/kg); for Emax reached in the temporal curve / latency in reaching the Emax in the temporal curve: highest doses; for RELATIVE EFFICACY: relative to maximum efficacy of rac-ketorolac. The source says: In order to determine and compare the antinociceptive effects of these analgesics the preclinical experimental model of PIFIR “pain-induced functional impairment model in the rat” was used.

The test system of the next series is rat population. To be noted: rats, oral route; FIG. 7.
The conditions of series [2]: cited from earlier work.
Another series relates to plasmatic proteins. To be noted: cited from earlier work.
Where [3] appears, read: doses needed to generate 50% of the most effective effect, oral route.

The values that follow come from US20210179623A1, “NEW CHEMICAL COMPOUND CONTAINING ACTIVE ENANTIOMETER S-(-) KETOROLAC TROMETHAMINE FOR THE TREATMENT OF PAIN” (priority 2017, published 2021).

Where two headings read alike, the source gives them in different places.

In the case of “2-amino-2-hydroximethyl-1,3 propanediol (1:1) S-(−)-5-benzoyl-2,3-dihydro-1H-pyrrolizine-1-carboxylate [S-(−)-ketorolac tromethamine]”, the “effective dose 50 (ED50, 50% of its own maximum effect)” value in series [1] (PIFIR model, rats, oral route, FIG. 6) is recorded as “less than the rest of the active substances being studied”. Also, the “MAXIMUM EFFICACY (ABC: X ± E.E.)” value in series [1] (PIFIR model, rats, oral route) is given as 310.5 ± 13.5. Besides, in series [1] (PIFIR model, rats), the “ED60 (mg/kg, oral route) (with regard to Emax: 324 au)” value (shortened to “ED60 (mg/kg, oral route)”) was found to be 0.36 ± 1.0 mg/kg. In series [1] (setting [3]), the “times more potent than acetylsalicylic acid” value was 1037 times, the “times more potent than morphine” value is 82 times and the “times more potent than rac-ketorolac” value is 3.3 times. For the same molecule, the “fixed effect 4 hours after administration” value in series [1] (higher doses, oral route, 4 hours) is “the same as that exhibited for rac-ketorolac and by morphine but higher than that exhibited by acetylsalicylic acid”. Moreover, in series [1] (oral route), the “Emax reached in the temporal curve” value was “Emax similar to that exhibited by rac-ketorolac and morphine, but this Emax was higher than that exhibited by acetylsalicylic acid”; the “latency in reaching the Emax in the temporal curve” value was “latency similar to that exhibited by rac-ketorolac, but less than that exhibited by morphine”. The “lethal dose 50 (LD50)” value with rat population is “smaller than the acetylsalicylic acid, but larger than the one reported for rac-ketorolac and morphine”.

With `O=C(c1ccccc1)c1ccc2n1CCC2C(=O)O` (racemic) [rac-ketorolac, ketorolac tromethamine], in series [1] (PIFIR model, rats, oral route), the “RELATIVE POTENCY (relative to 5-ketorolac)” value (shortened to “RELATIVE POTENCY”) is given as −3.3, the “MAXIMUM EFFICACY (ABC: X ± E.E.)” value turned out to be 324.6 ± 7.8 and the “RELATIVE EFFICACY” value amounted to 1.0. Moreover, the “ED60 (mg/kg, oral route)” value in series [1] (PIFIR model, rats) was determined as 1.19 ± 1.2 mg/kg. Also, the “onset of the analgesic effects after administration” value in series [2] (any presentation) was 30 min. Moreover, in series [2] (in vivo), the “excreted renally as a conjugated metabolite” value was 21.9%, the “excreted renally as a hydroxylated metabolite” value is reported as 11.5% and the “excreted renally as the unaltered drug” value was 60.2%. Further, the “metabolized in the liver by conjugation” value in series [2] (inactive metabolites) is on record as 21%. The “time of maximum level” value in series [2] (intravenous and intramuscular use) is “first and second hour”. Further, the “time of maximum level” value in series [2] (oral administration, tablets or capsules) was 3 h. For the same molecule, the “bonds with plasmatic proteins” value with plasmatic proteins is recorded as 99%.

Take `CC(=O)Oc1ccccc1C(=O)O` [Acetylsalicylic Acid, acetylsalicylic acid]: in series [1] (PIFIR model, rats, oral route), the “RELATIVE POTENCY” value was −1,036.9, the “MAXIMUM EFFICACY (ABC: X ± E.E.)” value was 226.6 ± 11.7 and the “RELATIVE EFFICACY” value is 0.70. Moreover, in series [1] (PIFIR model, rats), the “ED60 (mg/kg, oral route)” value was determined as 373.3 ± 1.7 mg/kg. Also, in series [1] (oral route), the “Emax reached in the temporal curve” value was “smaller than those exhibited by the other analgesics” and the “latency in reaching the Emax in the temporal curve” value is “least latency in reaching its Emax”.

As to `CN1CC[C@]23c4c5ccc(O)c4O[C@H]2[C@@H](O)C=C[C@H]3[C@H]1C5` [Morphine, morphine], in series [1] (PIFIR model, rats, oral route), the “RELATIVE POTENCY” value is given as −81.5, the “MAXIMUM EFFICACY (ABC: X ± E.E.)” value was found to be 310.8 ± 8.9 and the “RELATIVE EFFICACY” value is recorded as 1.0. In addition, the “ED60 (mg/kg, oral route)” value in series [1] (PIFIR model, rats) is listed as 29.35 ± 1.1 mg/kg.
